Experimental data published in paper PMC7248705, “A Pharmacokinetic and Pharmacodynamic Evaluation of the Anti-Hepatocellular Carcinoma Compound 4-N-Carbobenzoxy-gemcitabine (Cbz-dFdC)” (Molecules, 2020).
“Also recorded” adds a separate entry of the source. Where two headings read alike, the source gives them in different places.

Key:
[1] = Enzymatic kinetics in vitro, rat plasma; format: in vitro ADME; conditions: 37 °C, 30 min, 5–200 μM Cbz-dFdC
Protocol: (§1) The SD rats without any treatment were sacrificed after adapting to the environment. Blank blood, the liver, the kidney, and the intestine were collected and treated as described in Section 4.4. Part of the homogenate was removed for centrifugation for 20 min at 9000× g at 4 °C, and the supernatant was obtained as tissue S9. The tissue homogenate and S9 were diluted to […] after the protein concentration was determined by the BCA kit (Abcam, Cambridge, MA, USA). Each matrix consisted of 45 uL of the matrix mixed with 5 uL of the drug dissolved in normal saline solution for about 3 min, followed by incubation at 37 °C in a water bath. Then, acetonitrile containing the internal standard was added to terminate the reaction. Human tissue S9 and human CES1 recombinase purchased from the Ruid Liver Disease Research Co., Ltd. (Shanghai, China) were incubated under the same conditions. An enzyme kinetic study was obtained from the matrix following incubation at 37 °C for 30 min with 5, 10, 20, 50, 100, or 200 μM of Cbz-dFdC. We estimated the parameters and simulated curves according to the Eadie–Hofstee method.

human HepG2 cell line = test: CCK-8 tumor cell growth inhibition assay; format: cell-based; conditions: HepG2, CCK-8, concentration-dependent
Protocol: The cells were cultured on a 96-well plate for 4 h for each well. Then, dimethyl sulfoxide solution containing 0.1–100 mM of Cbz-dFdC and dFdC was diluted 1000 times with the medium before administration. A total of 200 uL of medium containing Cbz-dFdC and dFdC was added per well (n = 6). The medium with drugs was discarded, and 10% CCK-8 solution was added. Then, the absorbance value was read at a wavelength of 450 nm after incubation at 37 °C, for 30 min. The drug concentration of Cbz-dFdC and dFdC in cell were determined by a previously established method.

CES1 = biological target: T1, CES1 (Homo sapiens, UniProt P23141); test: Enzymatic kinetics in vitro, human CES1 recombinase; format: in vitro ADME; conditions: recombinant human CES1, 37 °C, 30 min, 5–200 μM Cbz-dFdC, read-out: Clint, disappearance of Cbz-dFdC
T1 construct: purchased Ruid Liver Disease Research Co., Ltd. (Shanghai, China)
T1 sequence (P23141 18-567): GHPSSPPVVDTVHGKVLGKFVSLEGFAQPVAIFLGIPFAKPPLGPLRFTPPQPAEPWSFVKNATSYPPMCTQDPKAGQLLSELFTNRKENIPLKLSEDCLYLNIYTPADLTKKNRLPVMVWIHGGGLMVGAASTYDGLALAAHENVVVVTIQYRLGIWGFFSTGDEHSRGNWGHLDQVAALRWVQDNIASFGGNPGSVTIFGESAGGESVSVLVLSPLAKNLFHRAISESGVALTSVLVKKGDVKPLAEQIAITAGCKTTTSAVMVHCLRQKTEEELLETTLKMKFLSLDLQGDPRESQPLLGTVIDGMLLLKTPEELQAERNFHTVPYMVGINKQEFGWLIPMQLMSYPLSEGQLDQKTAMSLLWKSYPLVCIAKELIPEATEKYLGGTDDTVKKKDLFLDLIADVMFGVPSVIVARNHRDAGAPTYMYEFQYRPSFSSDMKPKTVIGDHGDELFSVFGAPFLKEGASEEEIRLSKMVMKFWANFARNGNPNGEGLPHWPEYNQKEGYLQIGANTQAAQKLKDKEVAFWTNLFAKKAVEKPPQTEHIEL
Protocol: as §1

For `O=C(Nc1ccn([C@@H]2O[C@H](CO)[C@@H](O)C2(F)F)c(=O)n1)OCc1ccccc1` [Cbz-dFdC, 4-N-carbobenzoxy-gemcitabine], the “Vmax, appearance of dFdC” value [1] was 230.4 nmol/min/mg pro, the “Vmax, disappearance of Cbz-dFdC” value [1] was 486.2 nmol/min/mg pro and the Km ([1]; read-out: Km, appearance of dFdC) was 101 µM. For the same molecule, the Km ([1]; read-out: Km, disappearance of Cbz-dFdC) was 90.3 µM, the microsomal CLint ([1]; SD, read-out: Clint, disappearance of Cbz-dFdC) was 5380 µL/min/mg and the “cytotoxicity / tumor cell growth inhibition” value (human HepG2 cell line) was “certain cytotoxicity; also recorded: lower than that of an equimolar dose of dFdC”. For the same molecule, the microsomal CLint (CES1) was 72700 µL/min/mg.
